The values below come from the supplement of paper PMC3770661.

This assay has as its system HepG2 (L1.3 5'UTR promoter firefly luciferase reporter). The assay can be described thus: L1 promoter activity (FLuc/RLuc) relative to DMSO vehicle control (% of control); higher = stronger L1 promoter activation.
Where [1] appears, read: concentration (uM unless unit written): 0.1, treatment time: 6 h.
[2] abbreviates: concentration (uM unless unit written): 0.1, treatment time: 24 h.
[3] abbreviates: concentration (uM unless unit written): 1, treatment time: 6 h.
The mark [4] stands for this setting: concentration (uM unless unit written): 1, treatment time: 24 h.
[5] abbreviates: concentration (uM unless unit written): 5, treatment time: 6 h.
Setting [6] is: concentration (uM unless unit written): 10, treatment time: 6 h.
[7] abbreviates: concentration (uM unless unit written): 10, treatment time: 24 h.
Where [8] appears, read: concentration (uM unless unit written): 50, treatment time: 6 h.
[9] abbreviates: concentration (uM unless unit written): 50, treatment time: 24 h.
The mark [10] stands for this setting: concentration (uM unless unit written): 100, treatment time: 6 h.
Setting [11] is: concentration (uM unless unit written): 100, treatment time: 24 h.
[12] abbreviates: concentration (uM unless unit written): 500, treatment time: 6 h.
Setting [13] is: concentration (uM unless unit written): 250, treatment time: 6 h.
Setting [14] is: concentration (uM unless unit written): 5, treatment time: 24 h.
Where [15] appears, read: concentration (uM unless unit written): 125, treatment time: 6 h.
The mark [16] stands for this setting: concentration (uM unless unit written): 125, treatment time: 24 h.

Structures can show the parent of a compound that is named as a salt. ± gives the uncertainty stated by the source.

As for `NC(=O)CI` [Iodoacetamide], the L1 promoter activity came to 97.4 ± 9 under setting [1]; 103 ± 11 under setting [2]; 101 ± 13 under setting [3]; 106 ± 16 under setting [4]; 117 ± 23 under setting [5]; 130 ± 27 under setting [6].

For `Clc1ccccc1CN1CCc2sccc2C1` [Ticlopidine], the L1 promoter activity by setting is: under setting [6], 117 ± 5.9; under setting [7], 124 ± 4.8; (concentration (uM unless unit written): 25, treatment time: 6 h) 107 ± 9.2; (concentration (uM unless unit written): 25, treatment time: 24 h) 104 ± 9.1; under setting [8], 96.2 ± 12; under setting [9], 113 ± 22. Moreover, the L1 promoter activity is, setting by setting: under setting [10], 97.5 ± 13; under setting [11], 129 ± 11.

As for `C=C1[C@@H](C)[C@H]2[C@H](Cc3ccccc3)NC(=O)[C@]23[C@H](OC(C)=O)/C=C/[C@@](C)(O)C(=O)[C@@H](C)C/C=C/[C@H]3[C@@H]1O` [Cytochalasin D], the L1 promoter activity is 110 ± 13 under setting [1]; 106 ± 11 under setting [2]; 101 ± 7.4 (concentration (uM unless unit written): 0.5, treatment time: 6 h); 128 ± 8.5 (concentration (uM unless unit written): 0.5, treatment time: 24 h); 106 ± 12 under setting [3]; 167 ± 16 under setting [4]. For the same compound, the L1 promoter activity runs as follows: under setting [6], 98.6 ± 13; under setting [7], 295 ± 20.

Take `C=CCCC(=O)O` [4-Pentenoic acid]: the L1 promoter activity by setting is: (concentration (uM unless unit written): 25000, treatment time: 6 h) 102 ± 2.3; (concentration (uM unless unit written): 25000, treatment time: 24 h) 28.2 ± 0.94; (concentration (uM unless unit written): 50000, treatment time: 6 h) 99.1 ± 4.5; (concentration (uM unless unit written): 50000, treatment time: 24 h) 22.5 ± 1.7; (concentration (uM unless unit written): 100000, treatment time: 6 h) 101 ± 26; (concentration (uM unless unit written): 100000, treatment time: 24 h) 25.8 ± 2.7.

Turning to `CN(C)CCC(c1ccc(Cl)cc1)c1ccccn1` (racemic) [(±)-Chlorpheniramine maleate salt], the L1 promoter activity reads like this: under setting [8], 91.1 ± 9.6; under setting [9], 96.2 ± 19; under setting [10], 101 ± 9.2; under setting [11], 86.4 ± 8.2; under setting [12], 84 ± 3.3.

On to `O=P1(N(CCCl)CCCl)NCCCO1` (configuration not stated) [Cyclophosphamide], for which the L1 promoter activity reads like this: (concentration (uM unless unit written): 10000, treatment time: 6 h) 96.3 ± 14; (concentration (uM unless unit written): 10000, treatment time: 24 h) 95.3 ± 11; (concentration (uM unless unit written): 20000, treatment time: 6 h) 93.6 ± 22; (concentration (uM unless unit written): 20000, treatment time: 24 h) 77.9 ± 4.5; (concentration (uM unless unit written): 40000, treatment time: 6 h) 98.3 ± 8.4.

With `CC1=C(CC(=O)O)c2cc(F)ccc2/C1=C\c1ccc([S+](C)[O-])cc1` (configuration not stated) [Sulindac], the L1 promoter activity under setting [13] was 218 ± 44.

On to `C[C@H](CCC(=O)O)C[C@H](C)C[C@H](C)C(=O)/C=C(\O)[C@H](C)C[C@H](C)C/C=C/[C@@H](C)[C@@H](O)[C@@H](C)[C@@H](O)C[C@@H]1CC[C@@](C)([C@H]2CC[C@@](C)([C@@H](C)O)O2)O1` [Ionomycin], for which the L1 promoter activity runs as follows: under setting [5], 77.1 ± 5; under setting [14], 79.5 ± 15; under setting [6], 60 ± 14; under setting [7], 58.1 ± 11; (concentration (uM unless unit written): 20, treatment time: 6 h) 60.5 ± 11; (concentration (uM unless unit written): 20, treatment time: 24 h) 36.9 ± 6.4.

Take `CC[C@]1(O)C[C@@H]2CN(CCc3c([nH]c4ccccc34)[C@@](C(=O)OC)(c3cc4c(cc3OC)N(C)[C@H]3[C@@](O)(C(=O)OC)[C@H](OC(C)=O)[C@]5(CC)C=CCN6CC[C@]43[C@@H]65)C2)C1` [Vinblastine]: the L1 promoter activity under setting [1] amounted to 92.8 ± 15; the L1 promoter activity under setting [2] amounted to 181 ± 31; the L1 promoter activity under setting [3] worked out at 92.1 ± 23; the L1 promoter activity under setting [4] was 161 ± 30; the L1 promoter activity under setting [5] is 94 ± 12; the L1 promoter activity under setting [14] turned out to be 207 ± 24.

For the compound `COc1ccc2c(c1OC)C(=O)OC2C1c2c(cc3c(c2OC)OCO3)CCN1C` [(S,R)-Noscapine], the L1 promoter activity runs as follows: under setting [15], 85.3 ± 11; under setting [16], 40.8 ± 2.2; under setting [13], 80.1 ± 20; (concentration (uM unless unit written): 250, treatment time: 24 h) 33.3 ± 5.6; under setting [12], 68.2 ± 9.4; (concentration (uM unless unit written): 500, treatment time: 24 h) 30.4 ± 4.2.

Consider `O=C(O)c1cc(-c2ccc(F)cc2F)ccc1O` [Diflunisal], for which the L1 promoter activity is 148 ± 6.5 (concentration (uM unless unit written): 62.5, treatment time: 6 h); 117 ± 8.5 (concentration (uM unless unit written): 62.5, treatment time: 24 h); 136 ± 12 under setting [15]; 156 ± 4.7 under setting [16]; 159 ± 21 under setting [13].
